Laboratory results published in patent US20220265659A1, “METHODS AND COMPOSITIONS FOR TREATING PAX6-DEFICIENCY RELATED DISEASE” (INSERM (INSTITUT NATIONAL DE LA SANTÉ ET DE AL RECHERCHE …, priority 2019, published 2022).

What was measured:
[1] = test system: PAX6-target gene expression; experiment: qRT-PCR analysis of PAX6-target gene expression in rescue experiments; type: cell-based, Human; conditions: mutated limbal stem cells
Description: (§1) Cells and culture conditions: Human mutated limbal epithelial stem cells (mut-LSCs) were obtained by genome editing (Crispr/cas9) of primary limbal stem cells, as described in Roux et al. (Roux, 2018 Stem cells). mut-LSCs and WT controls were cultured, as described earlier (Roux, 2018 Stem cells), in Keratinocyte serum-free medium (K-sfm) (Gibco™, Life Technologies), supplemented with 25 μg/mL Bovine Pituitary Extract (BPE; Gibco™, Life Technologies), 0.2 ng/mL Epidermal Growth Factor (EGF, Peprotech), 0.4 mM CaCl2, 2 mM Glutamine (Gibco™, Life Technologies) and 100 U/mL Penicillin/Streptomicin (Gibco™, Life Technologies). Routine subcultures were obtained by detaching cells with StemPro™ Accutase™ Cell Dissociation Reagent (Gibco™, Life Technologies) and replating at 2,000 cells/cm^2 (T-LSCs) or 3,000 cells/cm^2 (PAX6^+/− T-LSCs). All cells were negative for mycoplasma contamination (monthly tested).
(§2) Rescue experiments: Mut-LSCs were treated with each compound (Duloxetine, Ritanserine and Topotecan) directly added into the culture medium from 0.5 μg/mL to 4 μg/mL. No cell toxicity has been observed up to 10 μg/mL. The optimal concentration for each experiment (qRT-PCR, cell migration and cell adhesion) was 0.5 μg/mL. As positive control, 2 μg/mL recombinant PAX6 protein coupled with an 11R-tag (recPAX6, LD Biopharma Inc) was added, as described elsewhere (Roux et al. 2018 Stem cells).
(§3) qRT-PCR analysis: Cells were treated for 10 h with either compound or recPAX6 for rescue experiments, and harvested as a dry pellet. RNA was then extracted using RNEasy Mini kit (Qiagen) and cDNA were synthetized from 1 μg RNA using iScript cDNA synthesis kit (Bio-Rad). Quantitative PCR were performed in triplicate using […] SYBR Green PCR Master Mix (Absource Biotools). Expression of each gene was calculated using the 2^−ΔΔCt method. Results are presented as fold change normalized to B2M house-keeping gene and relative to control (treated with protein buffer or untreated) T-LSCs. Specific primers sequences used are listed in Suppl.

PAX6 protein = experiment: Western blot analysis of PAX6 protein production; type: cell-based, Human; parameters: rescue of PAX6 haploinsufficiency in vitro: unit of the concentration uncertain; conditions: for rescue of the production of endogenous PAX6 protein: mutated limbal stem cells
Description: as §1
[…] No cell toxicity has been observed up to 10 μg/mL. […] As positive control, 2 μg/mL recombinant PAX6 protein coupled with an 11R-tag (recPAX6, LD Biopharma Inc) was added, as described elsewhere (Roux et al. 2018 Stem cells).
Western blot analysis: Cells were harvested as a dry pellet, […] recPAX6 protein or its buffer for rescue experiments, lysed in RIPA buffer supplemented with Protease and Phosphatase Inhibitor Cocktail EDTA-Free (Roche) for 15 min on ice and centrifuged for 15 min at 4° C. at 15,000×g. Protein concentration was measured using Pierce BCA Protein Assay kit (Thermo Fisher Scientific) following manufacturer instructions. Thirty micrograms of total protein or 10 ng of recPAX6 protein were loaded on a SDS-PAGE gel (10%), transferred to nitrocellulose membranes using semi-dry method. Membranes were pre-stripped using Re-Blot Plus Strong solution (EMD Millipore) for 15 min, blocked twice for 5 min in 5% milk solution and incubated in primary antibody (PAX6, ab2237, Millipore, 1/1,000) overnight at 4° C. After 3 washing of 10 min in TBS with 0.2% Tween (TBS-T), membranes were incubated for 1 h with secondary antibody (Goat anti-rabbit HRP, BD Pharmingen) diluted in TBS-T 5% milk solution at 1/1,000. Proteins were visualized using chemiluminescence detection (Clarity™ Western ECL Substrate, Bio-Rad) on a gel imaging system (ImageQuant LAS 4000). Membranes were stripped again, incubated 90 min at room temperature with ACTIN (sc1615, 1/500, Santa Cruz) antibody diluted in TBS-T 5% milk, washed 3×10 min in TBS-T and incubated for 1 h in secondary antibody (Rabbit anti-goat HRP, 1/20,000, Jackson ImmunoResearch) at room temperature before revelation. Signal quantifications were made using ImageJ 1.49 software (NIH). Results are presented after ACTIN normalization.

[2] = test system: mutated limbal stem cells (mut-LSCs); experiment: In vitro migration test on IBIDI chambers; type: cell-based, Human; conditions: for rescue of cell migration: mutated limbal stem cells
Description: as §1
In vitro migration test: WT and mut-LSCs were seeded into culture-inserts 2 well at 25,000 cells per well in 6-well plates (IBIDI®). […] Sixteen hours after plating, the inserts were removed creating a gap of 500 μm between cells. Patches were overlaid with culture medium and closure of the gap was monitored for 10 h, taking pictures at regular time intervals. Gap width was measured using ImageJ 1.49 software (NIH). Results are presented as percent of gap width normalized at 100% at t=0 h.

PAX6 = experiment: qRT-PCR analysis for PAX6 expression with amplicon sequencing; type: cell-based, Human
Description: as §1, with “T-LSCs).” for “T-LSCs). All cells were negative for mycoplasma contamination (monthly tested).”
as §3, with “Results are presented as fold change normalized to B2M house-keeping gene and relative to control (treated with protein buffer or untreated) T-LSCs.” left out

Mut-LSCs = experiment: Rescue experiments: compound added to the culture medium of Mut-LSCs (cell toxicity, optimal concentration); type: cell-based, Human; conditions: qRT-PCR, cell migration and cell adhesion
Description: as §1, §2

[3] = test system: limbal stem cells (mut-LSC); conditions: mut-LSC with a nonsense mutation found in patients; cited from earlier work

Compound	rescue of PAX6-target gene expression [1]	rescue of PAX6 haploinsufficiency in vitro (PAX6 protein; FIG. 1: mut-LT limbal stem cells, 0.5 (unit uncertain), 10 h, qRT-PCR for PAX6-target gene expression (A), western blot for PAX6 protein (B))	rescue of the production of endogenous PAX6 protein (PAX6 protein)	rescue of migration of mutated limbal cells ([2]; FIG. 2: mut-LT, 0.5 µg/mL, 2 h before migration start, IBIDI chambers)	rescue of cell migration [2]	amplification of the mutated allele (amplicons sequenced) (PAX6; FIG. 3: mut-LSCs + Topotecan)	WT allele transcription (PAX6 expression by qRT-PCR) (PAX6; FIG. 3: mutated cells (mut-LSC))	PAX6 expression by qRT-PCR (PAX6; FIG. 3: treated WT-LSCs (normal LSCs))	rescue of PAX6 gene expression at the RNA level (PAX6; mutated limbal stem cells)	optimal concentration for each experiment (Mut-LSCs) [µg/mL]	rescue of altered PAX6 target gene expression, cell adhesion, cell migration and proliferation [3]	PAX6 protein production (PAX6 protein; FIG. 4: mutated LT (W) cells, western blot, 0.5, 1 or 5 mM)	PAX6 protein production (PAX6 protein; FIG. 5: W mutant limbal cells)
CC[C@@]1(O)C(=O)OCc2c1cc1n(c2=O)Cc2cc3c(CN(C)C)c(O)ccc3nc2-1 [Topotecan, topotecan]	able to rescue	can rescue	able to rescue	can rescue	able to rescue	did not identified any amplification	activates	not enhanced	able to rescue	0.5			
recombinant PAX6 protein: recombinant PAX6 protein coupled with an 11R-tag (recPAX6, LD Biopharma Inc), positive control											rescued		
Cc1nc2sccn2c(=O)c1CCN1CCC(=C(c2ccc(F)cc2)c2ccc(F)cc2)CC1 [Ritanserine, ritanserin]	able to rescue		able to rescue		able to rescue					0.5		rescued	
CNCC[C@H](Oc1cccc2ccccc12)c1cccs1 [Duloxetine, duloxetine]	able to rescue		able to rescue		able to rescue					0.5			rescued
